Test results published in patent publication US20230414762A1, “PROSTATE-SPECIFIC MEMBRANE ANTIGEN (PSMA)-TARGETED PRODRUG FOR SELECTIVE KILLING OF CELLS […]” (The Johns Hopkins University, priority 2020, published 2023).
Where “and” joins values, the source holds several entries; their conditions need not be identical. Equal entries are not always repeated. Entries after “also recorded” stand apart in the source; their conditions may differ. Starred links: 1 amine or outer side, 2 acyl side, 3 side chain; linkers in the order of their positions; H or OH if unused. Non-standard residues stand in square brackets, D forms with d. Residues, ends and D or L forms follow the SMILES beside them. *: point of attachment. X1 = O=C(O)CC[C@H](NC(=O)N[C@@H](CCCCNC(=O)CCCCCCC(=O)*)C(=O)O)C(=O)O; Dolaproine = CO[C@@H]([C@@H]1CCCN1)[C@@H](C)C(=O)O; Dil = CC[C@H](C)[C@H](NC)[C@@H](CC(=O)O)OC; PABC = O=C(OCc1ccc(N[*:1])cc1)[*:2]; X2 = C[C@@H](N*)[C@@H](O)c1ccccc1; Cit = NC(=O)NCCC[C@H](N)C(=O)O; NMeV = CN[C@H](C(=O)O)C(C)C

Columns and labels:
recombinant cathepsin B = biological target: T1, recombinant cathepsin B (Homo sapiens, UniProt P07858); assay: Release of MMAE from prodrug by recombinant cathepsin B; format: biochemical; conditions: within 3 h of incubation with recombinant cathepsin B
T1 construct: purchased MilliporeSigma C8571
Method: Release of MMAE from prodrugs by a recombinant cathepsin B was analyzed using a modified method from previously published work. Dubowchik et al., 2002. Prodrug stock solutions (8 μL, 10 mM) were added to the 2 mL cathepsin B (MilliporeSigma, Cat #C8571, Burlington, MA, USA) containing buffer (25 mM acetate, 1 mM EDTA, pH 5, pre-warmed at 37° C.) at the final concentration of 30 nM (cathepsin B) and 40 μM (prodrug). Aliquots (200 μL) were periodically removed and enzymatic activity was stopped by the addition of thioprotease inhibitor E-64 (30 nM in the final solution, MilliporeSigma, Cat #E3132). The samples were centrifuged and the supernatants were analyzed by HPLC (Waters 600 E coupled with Varian prostar detector, Milford, MA, USA). Samples were prepared at 0, 10, 20, 30, 60, 90, and 120 min. Experiments were performed in triplicate.

[1] = Serum stability in murine serum (HPLC); format: in vitro ADME, mouse
Method: Serum stability of prodrugs was analyzed using a modified method from previously published work. Chu et al., 2012. Prodrug stock solution (8 μL, 10 mM) was incubated with 100% mouse serum (final concentration of the serum was 80% after the mixing with prodrug solution) at 37° C. Aliquots (50 μL) were periodically removed at 2, 4, 8, 24, and 48 h, and diluted with cold ice CH3OH (100 μL) to precipitate proteins. The samples were centrifuged, and the supernatants were analyzed by HPLC. Stability was calculated based on the peak area of the prodrug at each time point. Experiments were performed in triplicate.

[2] = Serum stability in human serum; format: in vitro ADME
Method: Prior to in vivo potency, the stability of SBPD-1 and SBPD-2 in murine serum was evaluated. While 90% of SBPD-2 remained intact for 48 h in murine serum (FIG. 3a), SBPD-1 was metabolized more quickly in murine serum (FIG. 3a). […] SBPD-1, however, was stable in human serum (FIG. 3a). It has been reported that the valine-citrulline linker is stable in human and monkey serum, but that it can be hydrolyzed in mouse plasma via extracellular carboxylesterase 1c. Dorywalska et al., 2016; Anami et al., 2018. Based on those stability results, small, fractionated doses were applied for the murine efficacy study to avoid systemic toxicity that could affect the overall survival of the test animals.

PSMA+PC3 PIP tumors = assay: Subcutaneous xenograft efficacy, PSMA+ PC3 PIP tumors; format: in vivo, NSG mice; conditions: for median survival time: 4-fold tumor volume scored as death
PSMA− PC3 flu tumors = assay: Subcutaneous xenograft efficacy, PSMA- PC3 flu tumors; format: in vivo, NSG mice
[3] = In vivo toxicity in healthy mice (weight, survival, histopathology); parameters: species or system C57BL/6 mice
Method: (§1) The potential toxicity of SBPD-1 was evaluated in immunocompetent animals. MMAE (80 μg/kg), SBPD-1 (160 μg/kg), and 5% DMSO were administered to healthy C57BL/6 mice (n=5). Animals were monitored for 80 days after initiation of administration. […] Lung, liver, kidneys, salivary and lacrimal glands were removed from all tested animals at Day 80 after initiation of SBPD-1 treatment. […] Peripheral blood also was obtained from mice injected with vehicle, SBPD-1, and healthy untreated animals, and prepared serum for chemistry studies (n=5).
(§2) Male C57BL/6 mice were purchased from Jackson Laboratory. Ten-week-old mice were injected with the indicated doses of MMAE (formulated in 5% DMSO), SBPD-1 (formulated in saline) or 5% DMSO intraperitoneally (daily for 30 days, n=5). Animals were monitored daily for weight changes and other abnormalities for 80 days. Animals were euthanized in a CO2 chamber at day 80, and blood, lung, liver, kidney, salivary gland, and lacrimal gland were collected for complete blood counts, blood chemistry, and histopathological analyses. Complete blood counts including white blood cells (WBC), red blood cells (RBC), hemoglobin (HGB), hematocrit (HCT), mean corpuscular volume (MCV), mean corpuscular hemoglobin (MCH), mean corpuscular hemoglobin concentration (MCHC), and platelet (PLT) were measured using scil Vet ABC™ Hematology Analyzer (scil animal care company, Gurnee, IL). Blood chemistry parameters including blood urea nitrogen (BUN), glucose (GLU), Alkaline Phosphatase (ALP), total protein (T-Pro), Alanine aminotransferase (ALT) and Creatinine (Cre) were measured with Spotchem EZ chemistry analyzer (Arkray USA, Edina, MN). Hematoxylin and eosin slides were generated for five organs and examined by certified veterinary pathologist.

[4] = Blood chemistry in healthy mice; format: in vivo; conditions: C57BL/6 mice
Method: as §1, §2

[5] = Complete blood count in healthy mice; format: in vivo; conditions: C57BL/6 mice, 0.16 mg/kg
Method: as §2

PSMA+PC3/ML/PSMA cells = assay: Experimental metastatic model of PSMA-expressing PC
Method: A PSMA-expressing experimental metastatic model of human PC was used to evaluate efficacy of SBPD-1 on established metastatic tumors. […] PSMA+PC3/ML/PSMA cells were administered to NSG mice intravenously (IV) and tumors were allowed to establish for four weeks. PC3/ML/PSMA cells express firefly luciferase as an imaging reporter to allow tumor development to be monitored via weekly bioluminescence imaging (BLI).
For the metastatic model, NSG mice were injected with 0.75 million PC3/ML/PSMA cells via the tail vein. […] BLI was performed weekly using the IVIS Spectrum in vivo imaging system (Perkin Elmer, Waltham, MA).

[6] = Urinalyses from subcutaneous xenograft model (urine reagent strips); conditions: for urine protein / urine specific gravity: individual mice

## CC[C@H](C)[C@@H]([C@@H](CC(=O)N1CCC[C@H]1[C@H](OC)[C@@H](C)C(=O)N[C@H](C)[C@@H](O)c1ccccc1)OC)N(C)C(=O)[C@@H](NC(=O)[C@H](C(C)C)N(C)C(=O)OCc1ccc(NC(=O)[C@H](CCCNC(N)=O)NC(=O)[C@@H](NC(=O)CCCCCCC(=O)NCCCC[C@H](NC(=O)N[C@@H](CCC(=O)O)C(=O)O)C(=O)O)C(C)C)cc1)C(C)C [SBPD-1, (6S,9S,24S,28S)-1-Amino-6-((4-((5S,8S,11S,12R)-11-((S)-sec-butyl)-12-(2-((S)-2-((1R,2R)-3-(((1S,2R)-1-hydroxy-1-phenylpropan-2-yl)amino)-1-methoxy-2-methyl-3-oxopropyl)pyrrolidin-1-yl)-2-oxoethyl)-5,8-diisopropyl-4,10-dimethyl-3,6,9-trioxo-2,13-dioxa-4,7,10-triazatetradecyl)phenyl)carbamoyl)-9-isopropyl-1,8,11,18,26-pentaoxo-2,7,10,19,25,27-hexaazatriacontane-24,28,30-tricarboxylic acid] (X1-V[Cit][PABC][NMeV]V[Dil][Dolaproine]-X2)
Recombinant cathepsin B
  MMAE released: 80%
[1]; 8 h of incubation
  intact in serum: more than 80%
[1]; 24 h
  fraction representing parent compound: less than half
[1]; by 48 h of incubation
  degradation of prodrug: the majority of the prodrug was fully degraded
[2]
  stability in human serum: stable
PSMA+PC3 PIP tumors; 20 μg/kg daily IP for 30 days
  median survival time: 17 days
PSMA+PC3 PIP tumors; 40 μg/kg
  time until previously undetectable tumors could be re-measured: Approximately one week
PSMA+PC3 PIP tumors; 40 μg/kg daily IP for 30 days
  median survival time: 54 days
PSMA+PC3 PIP tumors; 80 μg/kg
  time until re-appearance of tumors: Two weeks
PSMA+PC3 PIP tumors; 80 μg/kg daily IP for 30 days
  median survival time: 69 days
PSMA+PC3 PIP tumors; doses of 40 and 80 μg/kg
  tumors at completion of treatment: undetectable
PSMA− PC3 flu tumors; 20 μg/kg daily IP for 30 days
  median survival time: 15 days
PSMA− PC3 flu tumors; 40 μg/kg daily IP for 30 days
  median survival time: 15 days
PSMA− PC3 flu tumors; 80 μg/kg daily IP for 30 days
  median survival time: 20 days
[3]; Day 80 after initiation of treatment, 160 μg/kg
  histopathological examination of lung, liver, kidneys, salivary and lacrimal glands: no tissue damage
[3]; healthy C57BL/6 mice, 160 μg/kg IP daily for 30 days, monitored 80 days
  signs of toxicity / weight: did not show any signs of toxicity; also recorded: did not induce toxicity
[4]; 160 μg/kg
  BUN, creatinine, glucose, ALP, T-Pro, ALT compared with untreated mice: did not show differences
[4]; 0.16 mg/kg, individual mice
  ALP: 94 IU/L (2×) and 108 IU/L and 96 IU/L and 85 IU/L
  ALT: 21 IU/L and 31 IU/L and 22 IU/L and 14 IU/L and 28 IU/L
  BUN: 28 mg/dl (2×) and 37 mg/dl (2×) and 27 mg/dl
  Cre: 1 mg/dl and 1.2 mg/dl and 1.1 mg/dl (2×) and 0.8 mg/dl
  GLU: 188 mg/dL and 248 mg/dL and 285 mg/dL and 219 mg/dL and 189 mg/dL
  T-Pro: 6.1 g/dl and 6.2 g/dl and 5.9 g/dl (2×) and 6 g/dl
[5]
  complete blood counts, abnormalities: no abnormalities except for lower white blood cell count
[5]; individual mice
  HCT: 36% and 36.6% and 32.2% and 35.6% and 35.8%
  HGB: 13.4 g/dl (2×) and 13.8 g/dl and 12.4 g/dl and 14 g/dl
  MCH: 33.8 pg (3×) and 35 pg and 34.8 pg
  MCHC: 75.8 g/dl (3×) and 76.4 g/dl and 78.2 g/dl
  MCV: 90 μm^3 (4×) and 92 μm^3
  PLT: 1280 10^3/mm^3 (2×) and 1068 10^3/mm^3 and 1132 10^3/mm^3 and 1262 10^3/mm^3
  RBC: 8.08 10^6/mm^3 and 8.16 10^6/mm^3 and 7.02 10^6/mm^3 and 7.98 10^6/mm^3 and 8.02 10^6/mm^3
  WBC: 1.6 10^3/mm^3 (2×) and 1.8 10^3/mm^3 and 1.4 10^3/mm^3 and 2 10^3/mm^3
PSMA+PC3/ML/PSMA cells; 40 μg/kg daily IP for 30 days
  median survival: 47 days
PSMA+PC3/ML/PSMA cells; 80 μg/kg daily IP for 30 days
  median survival: 56 days
PSMA+PC3/ML/PSMA cells; 160 μg/kg daily IP for 30 days
  median survival: 58 days
[6]; Day 9, PC3/PIP, 0.02 mg/kg
  urine protein: 30
  urine specific gravity: 1.025 (3×) and 1.02 (2×)
[6]; Day 9, PC3/PIP, 0.04 mg/kg
  urine protein: 30 (3×) and trace (2×)
  urine specific gravity: 1.025
[6]; Day 9, PC3/PIP, 0.08 mg/kg
  urine protein: trace and 30 (4×)
  urine specific gravity: 1.025
[6]; Day 9, PC3/flu, 0.02 mg/kg
  urine protein: 30
  urine specific gravity: 1.025 (4×) and 1.02
[6]; Day 9, PC3/flu, 0.04 mg/kg
  urine protein: 30
  urine specific gravity: 1.025
[6]; Day 9, PC3/flu, 0.08 mg/kg
  urine protein: 300 (2×) and 30 (2×) and 100
  urine specific gravity: 1.025
[6]; Day 20, PC3/PIP, 0.02 mg/kg
  urine protein: 30
  urine specific gravity: 1.025
[6]; Day 20, PC3/PIP, 0.04 mg/kg
  urine protein: 30
  urine specific gravity: 1.025
[6]; Day 20, PC3/PIP, 0.08 mg/kg
  urine protein: 30 (3×) and 100 (2×)
  urine specific gravity: 1.025
[6]; Day 20, PC3/flu, 0.02 mg/kg
  urine protein: 30
  urine specific gravity: 1.025 (3×) and 1.01 and 1.03
[6]; Day 20, PC3/flu, 0.04 mg/kg
  urine protein: 30
  urine specific gravity: 1.025 (2×) and 1.03 (2×)
[6]; Day 20, PC3/flu, 0.08 mg/kg
  urine protein: 300 (2×) and 30 (3×)
  urine specific gravity: 1.025
[6]; all test animals, Days 9 and 20, any dose tested
  urine protein level and specific gravity (acute renal toxicity): normal
